# Results published in PubChem BioAssay (NCI).
#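 Test compounds were applied to cells in 96-well plates for 48 hours at 5 doses. TGI denotes the concentration required for complete inhibition of growth.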
# Tests used:
# Assay in all cases: growth of human tumour cells (NCI), 48 h
# COLO 205 colon = test system: COLO 205 colon
# ACHN renal = test system: ACHN renal
# EKVX NSCLC = test system: EKVX NSCLC
# SW-620 colon = test system: SW-620 colon
# LOX IMVI melanoma = test system: LOX IMVI melanoma
# HOP-92 NSCLC = test system: HOP-92 NSCLC
# HT29 colon = test system: HT29 colon
# HL-60(TB) leukemia = test system: HL-60(TB) leukemia
# SNB-19 CNS = test system: SNB-19 CNS
# NCI-H522 lung = test system: NCI-H522 lung
# MALME-3M melanoma = test system: MALME-3M melanoma
# SK-MEL-2 melanoma = test system: SK-MEL-2 melanoma
# DLD-1 colon = test system: DLD-1 colon
# OVCAR-5 ovarian = test system: OVCAR-5 ovarian
# DMS 114 small cell lung = test system: DMS 114 small cell lung
# IGROV1 ovarian = test system: IGROV1 ovarian
# A549 NSCLC = test system: A549 NSCLC
# KM12 colon = test system: KM12 colon
# HOP-62 NSCLC = test system: HOP-62 NSCLC
# HCT-15 colon = test system: HCT-15 colon
# M14 melanoma = test system: M14 melanoma
# SF-268 CNS = test system: SF-268 CNS
# SF-539 CNS = test system: SF-539 CNS
# U251 CNS = test system: U251 CNS
# M19-MEL melanoma = test system: M19-MEL melanoma
# SN12C renal = test system: SN12C renal
# OVCAR-4 ovarian = test system: OVCAR-4 ovarian
# TK-10 renal = test system: TK-10 renal
# K-562 leukemia = test system: K-562 leukemia
# UO-31 renal = test system: UO-31 renal
# HCC-2998 colon = test system: HCC-2998 colon
# OVCAR-3 ovarian = test system: OVCAR-3 ovarian
# UACC-257 melanoma = test system: UACC-257 melanoma
# NCI-H460 lung = test system: NCI-H460 lung
# SK-MEL-5 melanoma = test system: SK-MEL-5 melanoma
# MOLT-4 leukemia = test system: MOLT-4 leukemia
# SNB-78 CNS = test system: SNB-78 CNS
# CCRF-CEM leukemia = test system: CCRF-CEM leukemia
# DMS 273 small cell lung = test system: DMS 273 small cell lung
# UACC-62 melanoma = test system: UACC-62 melanoma
# XF 498 CNS = test system: XF 498 CNS
# HCT-116 colon = test system: HCT-116 colon
# OVCAR-8 ovarian = test system: OVCAR-8 ovarian
# RPMI-8226 leukemia = test system: RPMI-8226 leukemia
# SK-MEL-28 melanoma = test system: SK-MEL-28 melanoma
# 786-0 renal = test system: 786-0 renal
# KM20L2 colon = test system: KM20L2 colon
# NCI-H23 lung = test system: NCI-H23 lung
# SNB-75 CNS = test system: SNB-75 CNS
# LXFL 529 NSCLC = test system: LXFL 529 NSCLC
# RXF 393 renal = test system: RXF 393 renal
# SF-295 CNS = test system: SF-295 CNS
# SR leukemia = test system: SR leukemia
# CAKI-1 renal = test system: CAKI-1 renal
# HOP-18 NSCLC = test system: HOP-18 NSCLC
# SK-OV-3 ovarian = test system: SK-OV-3 ovarian
compound,measurement,setting,value
COC(=O)C12CC(c3ccccc31)C1C(=O)OC(=O)C12 (configuration not stated),TGI,COLO 205 colon,> 100 µM
same,TGI,ACHN renal,> 100 µM
same,TGI,EKVX NSCLC,> 100 µM
same,TGI,SW-620 colon,> 100 µM
same,TGI,LOX IMVI melanoma,> 100 µM
same,TGI,HOP-92 NSCLC,> 100 µM
same,TGI,HT29 colon,> 100 µM
same,TGI,HL-60(TB) leukemia,> 100 µM
same,TGI,SNB-19 CNS,> 100 µM
same,TGI,NCI-H522 lung,> 100 µM
same,TGI,MALME-3M melanoma,> 100 µM
same,TGI,SK-MEL-2 melanoma,> 100 µM
same,TGI,DLD-1 colon,> 100 µM
same,TGI,OVCAR-5 ovarian,> 100 µM
same,TGI,DMS 114 small cell lung,> 100 µM
same,TGI,IGROV1 ovarian,> 100 µM
same,TGI,A549 NSCLC,> 100 µM
same,TGI,KM12 colon,> 100 µM
same,TGI,HOP-62 NSCLC,> 100 µM
same,TGI,HCT-15 colon,> 100 µM
same,TGI,M14 melanoma,> 100 µM
same,TGI,SF-268 CNS,> 100 µM
same,TGI,SF-539 CNS,> 100 µM
same,TGI,U251 CNS,> 100 µM
same,TGI,M19-MEL melanoma,> 100 µM
same,TGI,SN12C renal,> 100 µM
same,TGI,OVCAR-4 ovarian,> 100 µM
same,TGI,TK-10 renal,> 100 µM
same,TGI,K-562 leukemia,> 100 µM
same,TGI,UO-31 renal,> 100 µM
same,TGI,HCC-2998 colon,> 100 µM
same,TGI,OVCAR-3 ovarian,> 100 µM
same,TGI,UACC-257 melanoma,> 100 µM
same,TGI,NCI-H460 lung,> 100 µM
same,TGI,SK-MEL-5 melanoma,> 100 µM
same,TGI,MOLT-4 leukemia,> 100 µM
same,TGI,SNB-78 CNS,> 100 µM
same,TGI,CCRF-CEM leukemia,> 100 µM
same,TGI,DMS 273 small cell lung,> 100 µM
same,TGI,UACC-62 melanoma,> 100 µM
same,TGI,XF 498 CNS,> 100 µM
same,TGI,HCT-116 colon,> 100 µM
same,TGI,OVCAR-8 ovarian,> 100 µM
same,TGI,RPMI-8226 leukemia,> 100 µM
same,TGI,SK-MEL-28 melanoma,> 100 µM
same,TGI,786-0 renal,> 100 µM
same,TGI,KM20L2 colon,> 100 µM
same,TGI,NCI-H23 lung,> 100 µM
same,TGI,SNB-75 CNS,> 100 µM
same,TGI,LXFL 529 NSCLC,> 100 µM
same,TGI,RXF 393 renal,> 100 µM
same,TGI,SF-295 CNS,> 100 µM
COC(=O)C12C(=O)O[C@H](C)C1(O)C(C)C(=O)N2C (some centres not stated),TGI,COLO 205 colon,> 100 µM
same,TGI,EKVX NSCLC,> 100 µM
same,TGI,HT29 colon,> 100 µM
same,TGI,SNB-19 CNS,> 100 µM
same,TGI,SR leukemia,> 100 µM
same,TGI,MALME-3M melanoma,> 100 µM
same,TGI,SK-MEL-2 melanoma,> 100 µM
same,TGI,DLD-1 colon,> 100 µM
same,TGI,OVCAR-5 ovarian,> 100 µM
same,TGI,DMS 114 small cell lung,> 100 µM
same,TGI,IGROV1 ovarian,> 100 µM
same,TGI,KM12 colon,> 100 µM
same,TGI,HOP-62 NSCLC,> 100 µM
same,TGI,HCT-15 colon,> 100 µM
same,TGI,M14 melanoma,> 100 µM
same,TGI,CAKI-1 renal,> 100 µM
same,TGI,SF-539 CNS,> 100 µM
same,TGI,U251 CNS,> 100 µM
same,TGI,M19-MEL melanoma,> 100 µM
same,TGI,OVCAR-4 ovarian,> 100 µM
same,TGI,TK-10 renal,> 100 µM
same,TGI,K-562 leukemia,> 100 µM
same,TGI,UO-31 renal,> 100 µM
same,TGI,HCC-2998 colon,> 100 µM
same,TGI,OVCAR-3 ovarian,> 100 µM
same,TGI,SK-MEL-5 melanoma,> 100 µM
same,TGI,MOLT-4 leukemia,> 100 µM
same,TGI,HOP-18 NSCLC,> 100 µM
same,TGI,SNB-78 CNS,> 100 µM
same,TGI,UACC-62 melanoma,> 100 µM
same,TGI,XF 498 CNS,86.2 µM
same,TGI,HCT-116 colon,> 100 µM
same,TGI,OVCAR-8 ovarian,> 100 µM
same,TGI,RPMI-8226 leukemia,> 100 µM
same,TGI,SK-MEL-28 melanoma,> 100 µM
same,TGI,786-0 renal,> 100 µM
same,TGI,NCI-H23 lung,> 100 µM
same,TGI,RXF 393 renal,> 100 µM
same,TGI,SF-295 CNS,> 100 µM
same,TGI,SK-OV-3 ovarian,> 100 µM
